Measurements: patent US11911358B2, “Dicarboxylic acid esters for inducing an analgesic effect” (NEW FRONTIER LABS, LLC, priority 2020, dated 2024)

Experiments:
EpiDerm tissues [1] = test: EpiDerm bioassay: cytokine, chemokine and growth factor levels by multiplexed immunoassay after croton oil insult; type: cell-based, human; settings: 24 hours; for G-CSF, percentage of the control / GM-CSF, percentage of the control / IL-1ra, percentage of the control / IL-10, percentage of the control / IL-13, percentage of the control / Leptin, percentage of the control / IL-4, percentage of the control / PGE2, percentage of the control: EpiDerm + 0.1% croton oil, percent difference vs croton oil alone; for IL-4, percentage of the control: 25% azelaic acid Na salt, 1% salicylic acid Na salt, 1% green tea extract, 1 μg/mL doxycycline hyclate (doxorubicin), 1% 4-ethoxybenzaldehyde, 0.025% all-trans retinoic acid
Procedure: Multiplexed immunoassays: […] Izbicka, et al., Cancer Genomics Proteomics (2012) 9(1):27-35]. Multiplexed immunoassays were performed using Luminex 100 IS System (Luminex Corporation, Austin, TX). Analyte concentrations were calculated from the standard curves using Bio-Plex Manager 4.1.1 (Bio-Rad Laboratories, Hercules, CA). EpiDerm Bioassays: The EpiDermTM 3-Dimensional Skin Model was purchased from MatTek Corporation (Ashland, MA). […] Conditioned media were collected, the remaining cells were homogenized on ice in the presence of protease and phosphatase inhibitors, and the lysates were clarified by centrifugation. The media and cell lysates were snap frozen at -70° C. Proteins were resolved by gel electrophoresis and visualized in immunoblots with human-specific antibodies to inducible nitric oxide synthase (iNOS), S-nitrosocysteine, and superoxide dismutase 2 (all from Abcam, Cambridge, MA). […] Croton oil (a chemical irritant) was used as a control. The results are shown as percent difference in marker levels in tissues treated with the test articles and those treated with croton oil alone. (Table 1). […] This pattern of tandem upregulation of examined markers in concert with downregulation of PGE2 was unique for DEA and was not observed with any other test article.

EpiDerm tissues [2] = test: EpiDerm croton oil irritant toxicity: proliferation and viability assays, microscopic inspection; type: cell-based, human; settings: 25% DEA, 0.1% croton oil
Procedure: Cell proliferation and cytotoxicity assays: CellTiter 96 Non-Radioactive Cell Proliferation Assay (MTT), CellTiter 96 AQueous One Solution Cell Proliferation Assay (MTS) and CellTiter-Glo Luminescent Cell Viability (ATP) kits were purchased from Promega (Madison, WI). Protein concentration was measured using Micro BCA protein assay kit (Pierce Biotechnology, Rockford, IL). EpiDerm Bioassays: The EpiDerm™ 3-Dimensional Skin Model was purchased from MatTek Corporation (Ashland, MA). […] Conditioned media were collected, the remaining cells were homogenized on ice in the presence of protease and phosphatase inhibitors, and the lysates were clarified by centrifugation. The media and cell lysates were snap frozen at −70° C. Proteins were resolved by gel electrophoresis and visualized in immunoblots with human-specific antibodies to inducible nitric oxide synthase (iNOS), S-nitrosocysteine, and superoxide dismutase 2 (all from Abcam, Cambridge, MA). […] Croton oil (a chemical irritant) was used as a control. The results are shown as percent difference in marker levels in tissues treated with the test articles and those treated with croton oil alone. (Table 1). […] This pattern of tandem upregulation of examined markers in concert with downregulation of PGE2 was unique for DEA and was not observed with any other test article.

PBMCs = test: Membrane fluidity measurement (pyrenedecanoic acid excimer fluorescence); type: cell-based, human; settings: 0.5% DEA
Procedure: Isolation of human peripheral blood mononuclear cells: Fresh human peripheral blood mononuclear cells (PBMC) specimens were obtained from healthy volunteers. The blood was collected into BD Vacutainer CPT Cell Preparation Tubes (Beckton Dickinson, Franklin Lakes, NJ) and centrifuged at 1,500×g at room temperature and PBMCs were isolated according to supplier's protocol. Cell counts and viability assessment using trypan blue exclusion were measured using hemocytometer. Membrane fluidity measurements: Membrane fluidity was measured using Membrane Fluidity Kit (PN […], Marker Gene Technologies, Eugene, OR). […] The fluorescence of the excimer (excitation at 355 nm, emission at 460 nm) was corrected for the monomer (excitation at 355 nm, emission at 400 nm). The inventors of the present disclosure have shown that altered membrane protein function with a U-shaped dose response. […] Physiological consequences of DEA membrane fluidizing activity were further investigated in human plasmacytoid dendritic cells, which express multiple PRRs including TLRs, NOD and dectin-1 receptors. Human plasmacytoid dendritic cells were stimulated with the receptor agonists alone or in combination with 0.5% DEA.

[3] = tested on: human plasmacytoid dendritic cells; test: ATP release and signaling with PRR agonists in plasmacytoid dendritic cells; type: cell-based; settings: 0.5% DEA, 24 hours
Procedure: Cell proliferation and cytotoxicity assays: CellTiter 96 Non-Radioactive Cell Proliferation Assay (MTT), CellTiter 96 AQueous One Solution Cell Proliferation Assay (MTS) and CellTiter-Glo Luminescent Cell Viability (ATP) kits were purchased from Promega (Madison, WI). Protein concentration was measured using Micro BCA protein assay kit (Pierce Biotechnology, Rockford, IL).
Pathogen-associated molecular pattern receptor agonist studies: PRR agonist kits; human Toll-like receptor (TLR1-9; n=9 agonists), nucleotide oligomerization domain (NOD) NOD1/NOD2 (n=10 agonists, denoted n1, n2, . . . , n10) and dectin-1 (a single agonist) were purchased from InvivoGen, San Diego, CA Plasmacytoid human dendritic cells (MatTek Corporation, Ashland, MA) were diluted to 1.6×10^5 cells/mL and incubated with the agonists at the concentrations in the middle ranges recommended by the supplier in the absence of DEA or with 0.5% DEA for 24 hours. The levels of measured analytes were normalized to the numbers of viable cells.
The inventors of the present disclosure have shown that altered membrane protein function with a U-shaped dose response. At the concentration of 0.5% DEA increased membrane fluidity by 18% above the cholesterol control level. Physiological consequences of DEA membrane fluidizing activity were further investigated in human plasmacytoid dendritic cells, which express multiple PRRs including TLRs, NOD and dectin-1 receptors. […]
Human plasmacytoid dendritic cells (1.6×10^5/ml) were exposed to 20 different PRR agonists alone at the concentrations within physiological ranges of each agonist or in the presence of 0.5% DEA for 24 hours. The results are expressed as the ratios of secreted ATP from the cells treated with the PRR receptor agonists and DEA (treatment groups) to the levels of ATP secreted by the cells treated with the agonists alone (control groups). […] Extracellular levels were measured, and the results were expressed as the ratios of released ATP from the cells+receptor agonist+DEA to the ATP from the cells+receptor agonist alone.

Balb/c mice = test: Hot plate test, hind limb response latency; type: in vivo; settings: 100% (neat) DEA topical to hind limb 5 minutes before test, 42° C., male mice; vs untreated control, p=0.03
Procedure: In vivo studies: Animal studies and all procedures were performed in compliance with the Animal Welfare Act Regulations (9 CFR 3) and the NIH guidelines for the care and use of laboratory animals at New Frontier Labs LLC, San Antonio, TX Both male and female Balb/c mice 8-10 weeks old weighing approximately 25 g were purchased from Taconic Farms (Hudson, NY). Animals were acclimatized for at least 72 hours after delivery. Prior to experiments the animals were randomized into treatment and control groups. For the assessment of nociceptive effect of DEA, only male mice were used (n=8 per group). The hot plate test was performed at a constant temperature of 42° C. as described in S. Hunskaar, et al., Eur. J. Pharmacol. 1985; 111(2):221-6, which is incorporated herein by reference. DEA was administered neat (100%) or diluted in ethanol (vehicle) to the hind limb. The treatments were administered 5 minutes prior to the heat test. The time between the heat exposure to the first incidence of animal licking the hind paw was measured with a stopwatch.
Statistical analysis: Statistical analysis was done using Student t statistic; p values <0.05 were considered significant. All samples/data were included in the analysis. Continuously distributed outcomes were summarized with the mean and standard deviation. […]

human PBMCs = type: cell-based; settings: 0.5% DEA, confocal microscopy (FIG. 3)

Compound | effect on pro-inflammatory markers among 57 examined cytokines, chemokines and growth factors (EpiDerm tissues [1]; 25% DEA, 0.1% croton oil) | G-CSF, percentage of the control (EpiDerm tissues [1]) [%] | GM-CSF, percentage of the control (EpiDerm tissues [1]) [%] | IL-1ra, percentage of the control (EpiDerm tissues [1]) [%] | IL-10, percentage of the control (EpiDerm tissues [1]) [%] | IL-13, percentage of the control (EpiDerm tissues [1]) [%] | Leptin, percentage of the control (EpiDerm tissues [1]) [%] | IL-4, percentage of the control (EpiDerm tissues [1]; 25% DEA) [%] | tissue integrity as evaluated by microscopic inspection (EpiDerm tissues [2]) | croton oil irritant toxicity in proliferation and viability assays (EpiDerm tissues [2]; 24 hours) | increase of membrane fluidity above the cholesterol control level (PBMCs) [%] | effect on ATP signaling with NOD receptor ligands n9 and n10 [3] | cellular signaling from all examined PRR ([3]; TLR, NOD, dectin-1 agonists) | ratio of released ATP, cells+receptor agonist+DEA to cells+receptor agonist alone ([3]; all PRR agonists except NOD ligands n9 and n10 (FIG. 1)) | decrease of heat sensitivity (hot plate response latency) (Balb/c mice) [%] | foci of enhanced cholera toxin B subunit fluorescence on plasma membranes (human PBMCs) | PGE2, percentage of the control (EpiDerm tissues [1]) [%]
CCOC(=O)CCCCCCCC(=O)OCC [DEA, diethyl azelate] | downregulated most of the pro-inflammatory markers | 561 | 280 | 33 | 200 | 112 | 51 | 600 | protected tissue integrity | nullified croton oil irritant toxicity | 18 | no apparent effect | downregulated cellular signaling from all examined PRR | < 1 | 33 | no foci of enhanced fluorescence were detectable | –
COc1cccc2c1C(=O)c1c(O)c3c(c(O)c1C2=O)C[C@@](O)(C(=O)CO)C[C@@H]3O[C@H]1C[C@H](N)[C@H](O)[C@H](C)O1 [Doxorubicin, doxorubicin] | – | 0 | −3 | 15 | 214 | −38 | 116 | 80 | – | – | – | – | – | – | – | – | −2
CCOc1ccc(C=O)cc1 [4-ethoxybenzaldehyde] | – | 340 | −26 | 34 | 471 | 34 | 39 | 80 | – | – | – | – | – | – | – | – | 4
CC1=C(/C=C/C(C)=C/C=C/C(C)=C/C(=O)O)C(C)(C)CCC1 [Retinoic acid, all-trans retinoic acid] | – | 360 | −39 | 20 | 369 | −19 | 36 | 100 | – | – | – | – | – | – | – | – | 4
O=C(O)CCCCCCCC(=O)O [Azelaic acid, azelaic acid] | – | −100 | −16 | 18 | 152 | −4 | 41 | 40 | – | – | – | – | – | – | – | – | −1
O=C(O)c1ccccc1O [Salicylic acid, salicylic acid] | – | 640 | −7 | 15 | 257 | −46 | 202 | 40 | – | – | – | – | – | – | – | – | 5
